# Laboratory results: patent US7989482B2, “Indoline anti-cancer agents” (Joyant Pharmaceuticals, Inc., priority 2008, dated 2011)
# Like-named read-outs stand apart in the source and are kept apart here.
# How the values were obtained:
# [1] = test system: LOVO; assay: Cell profiling, LOVO tumor cell line; format: cell-based; details: Homo sapiens, origin Colon
# Method: (§1) Cell viability assays were run using standard protocols known to those of skill in art. Cells were plated in 96 well plates at the density of 3,000-10,000 cells per well. Twenty four hours later, cells were treated with increasing concentration of test compounds (1 nM to 1 μM). After another 48 hour, cell survival was measured using CELL-TITER-GLO® reagent (Promega) following the protocol provided by the manufacture. The IC50 value was determined as the concentration of test compound that kills 50% of the cell population.
# (§2) The compound of Example 46 was profiled in tumor cell lines derived from a variety of origins.
# [2] = test system: NCI-H460; assay: Cell profiling, NCI-H460 tumor cell line; format: cell-based; details: Homo sapiens; Tumor cell line NCI-H460, origin Lung
# Method: as §1, §2
# [3] = test system: U937 cells; assay: Cell viability assay (CELL-TITER-GLO) in U937 cells; format: cell-based; details: Homo sapiens
# Method: as §1
# (§3) Cell viability data generated according to the protocol described in Example 97 was generated for representative compounds in A2058 and U937 cells.
# [4] = test system: BxPC3; assay: Cell profiling, BxPC3 tumor cell line; format: cell-based; details: Homo sapiens, BXPC-3; Tumor cell line BxPC3, origin Pancreas
# Method: as §1, §2
# [5] = test system: OVCAR 3; assay: Cell profiling, OVCAR 3 tumor cell line; format: cell-based; details: Homo sapiens; Tumor cell line OVCAR 3, origin Ovarian
# Method: as §1, §2
# [6] = test system: COLO205; assay: Cell profiling, COLO205 tumor cell line; format: cell-based; details: Homo sapiens, COLO 205; Tumor cell line COLO205, origin Colon
# Method: as §1, §2
# [7] = test system: HCC461; assay: Cell profiling, HCC461 tumor cell line; format: cell-based; details: Tumor cell line HCC461, origin Lung
# Method: as §1, §2
# [8] = test system: HCT116; assay: Cell profiling, HCT116 tumor cell line; format: cell-based; details: Homo sapiens, HCT-116; Tumor cell line HCT116, origin Colon
# Method: as §1, §2
# [9] = test system: HCC1437; assay: Cell profiling, HCC1437 tumor cell line; format: cell-based; details: Tumor cell line HCC1437, origin Lung
# Method: as §1, §2
# [10] = test system: A2058 cells; assay: Cell viability assay (CELL-TITER-GLO) in A2058 cells; format: cell-based; details: Homo sapiens
# Method: as §1, §3
# [11] = test system: A375; assay: Cell profiling, A375 tumor cell line; format: cell-based; details: Homo sapiens, A-375; Tumor cell line A375, origin Skin
# Method: as §1, §2
# [12] = test system: DU145; assay: Cell profiling, DU145 tumor cell line; format: cell-based; details: Homo sapiens, DU-145; Tumor cell line DU145, origin Prostate
# Method: as §1, §2
# [13] = test system: BT474; assay: Cell profiling, BT474 tumor cell line; format: cell-based; details: Homo sapiens, BT-474; Tumor cell line BT474, origin Breast
# Method: as §1, §2
# [14] = test system: HT29; assay: Cell profiling, HT29 tumor cell line; format: cell-based; details: Homo sapiens, HT-29; Tumor cell line HT29, origin Colon
# Method: as §1, §2
# [15] = test system: HCT116 human colon carcinoma xenograft; assay: HCT116 human colon carcinoma xenograft model in mice; format: in vivo; details: 20 mg/kg per dose intravenously, days 9, 11, 14, 16, 18 and 21 post tumor cell injection
# Method: Compound of Example 73 was administered at 20 mg/kg per dose. Injections were given at days 9, 11, 14, 16, 18 and 21 post tumor cell injection.
# The compound of Example 73 was tested in HCT116 human colon carcinoma xenograft and Miapaca pancreatic cancer xenograft tumor models in 5- to 6-week-old Harlan Athymic Nude-Foxnlnu mice.
# Preparation of Tumor Cells • 1. Tumor cells were cultured in complete RPMI medium and excluded any contamination • 2. When cells are 70-80% confluent, medium was removed and cells were washed with serum free media, trypsinized, harvested and washed with serum free media for three times by centrifuge. After final washing, cells were counted and mixed with matrigel at 1:1 ration in volume. Cells were suspended in a volume that 200 μl contains required number of cells per injection.
# Preparation of the Injection • 1. Clean and sterilize the inoculation area of the mice with iodine solutions and ethanol. • 2. Take cells with 1-cc syringe. • 3. Inject tumor cells (1×10^7) subcutaneously (s.c.) into the lower flank of the mice. • 4. When tumors reached 200-300 mm^3 in size, mice were randomized into treatment groups of five mice per group. • 5. Mice were weighed and tumors measured using vernier calipers two times per week. Tumor volume in mm3 is calculated by the formula: Volume (mm^3)=(length×width^2)/2. […]
# [16] = U-937, 48 h, U937 cells, 48 hour treatment, cell viability, read-out: IC50 (μM) U937
# [17] = A2058, 48 h, A2058 cells, 48 hour treatment, cell viability, read-out: IC50 (μM) A2058
# [18] = U-937, U937 cells, 48 hour treatment, cell viability, read-out: IC50 (μM) U937
# [19] = A2058 cells, 48 hour treatment, cell viability, read-out: IC50 (μM) A2058
structure (smiles),measurement,setting,value
COC(=O)c1coc(-c2nc3oc2C24c5ccccc5N[C@H]2Oc2ccc(cc24)C[C@H](NC(=O)[C@@H](O)C(C)C)C(=O)N[C@H]3C(C)C)n1 (some centres unmarked) [Example 46],IC50,[1],148 nM
same,IC50,[2],245 nM
same,IC50,[3]; [16],0.013 µM
same,IC50,"[3]; U-937, Tumor cell line U937, origin Blood, read-out: IC50",0.013 µM
same,IC50,[4],23 nM
same,IC50,[5],32 nM
same,IC50,[6],147 nM
same,IC50,[7],344 nM
same,IC50,[8],731 nM
same,IC50,[9],63 nM
same,IC50,[10]; [17],0.044 µM
same,IC50,"[10]; A2058, Tumor cell line A2058, origin Skin, read-out: IC50",0.044 µM
same,IC50,[11],99 nM
same,IC50,[12],67 nM
same,IC50,[13],6 nM
same,IC50,[14],90 nM
CC(C)[C@H](O)C(=O)N[C@H]1Cc2ccc3c(c2)C2(C4=C(c5nc(CO)co5)N=C(O4)[C@H](C(C)C)NC1=O)c1ccccc1N[C@H]2O3 (some centres unmarked) [Example 73],IC50,[3]; [16],0.037 µM
same,maximum weight loss,[15],7.9%
same,"tumor size for treated animals, % of control",[15]; day 25,34.5 % of control
same,IC50,[10]; [17],0.093 µM
COC(=O)c1nc([C@@H](NC(=O)[C@H](Cc2ccc(O)cc2)NC(=O)[C@@H](O)C(C)C)C(C)C)oc1-c1c[nH]c2ccccc12 [Example 89],IC50,[3]; [18],> 1 µM
same,IC50,[10]; [19],> 1 µM
CC(C)[C@H](O)C(=O)N[C@H]1Cc2ccc3c(c2)C2(C4=C(c5ncc(-c6c[nH]c7c(O)cccc67)o5)N=C(O4)[C@H](C(C)C)NC1=O)c1ccccc1N[C@H]2O3 (some centres unmarked) [Example 90],IC50,[3]; [16],> 1 µM
same,IC50,[10]; [17],0.994 µM
CC(C)[C@H](O)C(=O)N[C@H]1Cc2ccc3c(c2)C2(C4=C(c5ncc(-c6c[nH]c7ccccc67)o5)N=C(O4)[C@H](C(C)C)NC1=O)c1ccccc1N[C@H]2O3 (some centres unmarked) [Example 91],IC50,[3]; [16],0.579 µM
same,IC50,[10]; [17],0.475 µM
COC(=O)c1nc2oc1[C@@]13c4cc(Cl)ccc4NC1Oc1ccc(cc13)C[C@H](NC(=O)[C@@H](O)C(C)C)C(=O)N[C@H]2C(C)C (some centres unmarked) [Example 93],IC50,[3]; [16],> 1 µM
same,IC50,[10]; [17],> 1 µM
COC(=O)c1nc([C@@H](NC(=O)[C@H](Cc2ccccc2)NC(=O)[C@@H](O)C(C)C)C(C)C)oc1-c1c[nH]c2ccccc12 [Example 94],IC50,[3]; [18],> 1 µM
same,IC50,[10]; [19],> 1 µM
COc1ccc(-c2cnc(-c3nc4oc3[C@@]35c6ccccc6NC3Oc3ccc(cc35)C[C@H](NC(=O)[C@@H](O)C(C)C)C(=O)NC4C(C)C)o2)cc1 (some centres unmarked) [Example 95],IC50,[3]; [16],> 1 µM
same,IC50,[10]; [17],> 1 µM
